Laboratory results published in PubChem BioAssay AID2060906 (Molecular Pharmacology Branch, DTP, NCI, 2025).

Tested on: 485176-168-R4-J1-PDC complex spheroid growth
Assay: Anticancer human tumor 485176-168-R4-J1-PDC patient-derived pancreatic adenocarcinoma cell line growth inhibition [RAS]
Conditions: for viability, T/C: stronger effect = lower value
Method in brief: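 Multi-cell-type spheroids: tumor cells plus HUVEC endothelial cells and mesenchymal stem cells. RAS-pathway inhibitors were combined with targeted agents, each dosed in half-log steps down from clinical Cmax, or from 10 microM when Cmax was unknown.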

[1] = curve of first compound, second compound 0.000949 µM
[2] = curve of first compound, second compound 0.003 µM
[3] = curve of first compound, second compound 0.00949 µM
[4] = curve of first compound, second compound 0.03 µM
[5] = curve of first compound, second compound 0.0949 µM
[6] = curve of first compound, second compound 0.3 µM
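Further: spheroids exposed to compounds for seven days before readout.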
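Wherever viability, T/C is given: luminescence viability expressed relative to DMSO vehicle wells set as 100%.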

For `Nc1ccn(C2OC(CO)C(O)C2(F)F)c(=O)n1` (stereo not drawn) + CCn1c(-c2cc(N3CCN(C)CC3)cnc2C(C)OC)c2c3cc(ccc31)-c1csc(n1)CC(NC(=O)C1CC1C)C(=O)N1CCCC(N1)C(=O)OCC(C)(C)C2, the IC50 [1] was 0.017 µM, the IC50 [2] was 0.0174 µM and the IC50 [3] was 0.0182 µM. For the same compound, the IC50 [4] was 0.0125 µM, the IC50 [5] was 0.0144 µM and the IC50 [6] was 0.0191 µM. The viability, T/C (second compound 0.000949 µM, first compound 0.00316 µM) was 100%, the viability, T/C (second compound 0.000949 µM, first compound 0.01 µM) was 73.4% and the viability, T/C (second compound 0.000949 µM, first compound 0.0316 µM) was 23.1%. It also gave a viability, T/C (second compound 0.000949 µM, first compound 0.1 µM) of 9.57%, a viability, T/C (second compound 0.000949 µM, first compound 0.316 µM) of 11.2% and a viability, T/C (second compound 0.000949 µM, first compound 1 µM) of 11.5%. For the same compound, the viability, T/C (second compound 0.003 µM, first compound 0.00316 µM) was 94%, the viability, T/C (second compound 0.003 µM, first compound 0.01 µM) was 80.6% and the viability, T/C (second compound 0.003 µM, first compound 0.0316 µM) was 17.1%. The viability, T/C (second compound 0.003 µM, first compound 0.1 µM) was 6.87%, the viability, T/C (second compound 0.003 µM, first compound 0.316 µM) was 8.05% and the viability, T/C (second compound 0.003 µM, first compound 1 µM) was 13.2%. It also gave a viability, T/C (second compound 0.00949 µM, first compound 0.00316 µM) of 79.7%, a viability, T/C (second compound 0.00949 µM, first compound 0.01 µM) of 86.2% and a viability, T/C (second compound 0.00949 µM, first compound 0.0316 µM) of 19.7%. It also gave a viability, T/C (second compound 0.00949 µM, first compound 0.1 µM) of 7.74%, a viability, T/C (second compound 0.00949 µM, first compound 0.316 µM) of 10.7% and a viability, T/C (second compound 0.00949 µM, first compound 1 µM) of 12%. For the same compound, the viability, T/C (second compound 0.03 µM, first compound 0.00316 µM) was 97.9%, the viability, T/C (second compound 0.03 µM, first compound 0.01 µM) was 58.2% and the viability, T/C (second compound 0.03 µM, first compound 0.0316 µM) was 15.4%. It also gave a viability, T/C (second compound 0.03 µM, first compound 0.1 µM) of 12.6%, a viability, T/C (second compound 0.03 µM, first compound 0.316 µM) of 12.6% and a viability, T/C (second compound 0.03 µM, first compound 1 µM) of 11.5%. For the same compound, the viability, T/C (second compound 0.0949 µM, first compound 0.00316 µM) was 102%, the viability, T/C (second compound 0.0949 µM, first compound 0.01 µM) was 63.8% and the viability, T/C (second compound 0.0949 µM, first compound 0.0316 µM) was 20.7%. It also gave a viability, T/C (second compound 0.0949 µM, first compound 0.1 µM) of 9.33%, a viability, T/C (second compound 0.0949 µM, first compound 0.316 µM) of 11.3% and a viability, T/C (second compound 0.0949 µM, first compound 1 µM) of 7.79%. The viability, T/C (second compound 0.3 µM, first compound 0.00316 µM) was 73%, the viability, T/C (second compound 0.3 µM, first compound 0.01 µM) was 80.2% and the viability, T/C (second compound 0.3 µM, first compound 0.0316 µM) was 29.2%. The viability, T/C (second compound 0.3 µM, first compound 0.1 µM) was 9.97%, the viability, T/C (second compound 0.3 µM, first compound 0.316 µM) was 9.95% and the viability, T/C (second compound 0.3 µM, first compound 1 µM) was 11.2%.
`CCc1c2c(nc3ccc(O)cc13)-c1cc3c(c(=O)n1C2)COC(=O)[C@]3(O)CC` + CCn1c(-c2cccnc2C(C)OC)c2c3cc(ccc31)N1CCOC(CC(NC(=O)C(C(C)C)N(C)C(=O)C3(F)CCN(C(=O)C#CC(C)(C)N(C)C)CC3)C(=O)N3CCCC(N3)C(=O)OCC(C)(C)C2)C1 was tested, and the IC50 [1] was 0.0127 µM, the IC50 [2] was 0.00873 µM and the IC50 [3] was 0.015 µM. For the same compound, the IC50 [4] was 0.0125 µM, the IC50 [5] was 0.00674 µM and the IC50 [6] was 0.00731 µM. For the same compound, the viability, T/C (second compound 0.000949 µM, first compound 0.000949 µM) was 89%, the viability, T/C (second compound 0.000949 µM, first compound 0.003 µM) was 84.4% and the viability, T/C (second compound 0.000949 µM, first compound 0.00949 µM) was 56%. The viability, T/C (second compound 0.000949 µM, first compound 0.03 µM) was 27.5%, the viability, T/C (second compound 0.000949 µM, first compound 0.0949 µM) was 12.2% and the viability, T/C (second compound 0.000949 µM, first compound 0.3 µM) was 5.05%. For the same compound, the viability, T/C (second compound 0.003 µM, first compound 0.000949 µM) was 92.2%, the viability, T/C (second compound 0.003 µM, first compound 0.003 µM) was 84.3% and the viability, T/C (second compound 0.003 µM, first compound 0.00949 µM) was 43%. It also gave a viability, T/C (second compound 0.003 µM, first compound 0.03 µM) of 25.8%, a viability, T/C (second compound 0.003 µM, first compound 0.0949 µM) of 10.7% and a viability, T/C (second compound 0.003 µM, first compound 0.3 µM) of 7.84%. The viability, T/C (second compound 0.00949 µM, first compound 0.000949 µM) was 89.5%, the viability, T/C (second compound 0.00949 µM, first compound 0.003 µM) was 96.3% and the viability, T/C (second compound 0.00949 µM, first compound 0.00949 µM) was 63.1%. It also gave a viability, T/C (second compound 0.00949 µM, first compound 0.03 µM) of 27.6%, a viability, T/C (second compound 0.00949 µM, first compound 0.0949 µM) of 10.5% and a viability, T/C (second compound 0.00949 µM, first compound 0.3 µM) of 7.04%. For the same compound, the viability, T/C (second compound 0.03 µM, first compound 0.000949 µM) was 96.3%, the viability, T/C (second compound 0.03 µM, first compound 0.003 µM) was 94.1% and the viability, T/C (second compound 0.03 µM, first compound 0.00949 µM) was 52.5%. For the same compound, the viability, T/C (second compound 0.03 µM, first compound 0.03 µM) was 29.2%, the viability, T/C (second compound 0.03 µM, first compound 0.0949 µM) was 10.9% and the viability, T/C (second compound 0.03 µM, first compound 0.3 µM) was 4.84%. The viability, T/C (second compound 0.0949 µM, first compound 0.000949 µM) was 91.5%, the viability, T/C (second compound 0.0949 µM, first compound 0.003 µM) was 67.8% and the viability, T/C (second compound 0.0949 µM, first compound 0.00949 µM) was 43.4%. For the same compound, the viability, T/C (second compound 0.0949 µM, first compound 0.03 µM) was 19.7%, the viability, T/C (second compound 0.0949 µM, first compound 0.0949 µM) was 5.98% and the viability, T/C (second compound 0.0949 µM, first compound 0.3 µM) was 3.35%. For the same compound, the viability, T/C (second compound 0.3 µM, first compound 0.000949 µM) was 68.7%, the viability, T/C (second compound 0.3 µM, first compound 0.003 µM) was 64.1% and the viability, T/C (second compound 0.3 µM, first compound 0.00949 µM) was 45.9%. It also gave a viability, T/C (second compound 0.3 µM, first compound 0.03 µM) of 10.6%, a viability, T/C (second compound 0.3 µM, first compound 0.0949 µM) of 4.63% and a viability, T/C (second compound 0.3 µM, first compound 0.3 µM) of 2.53%.
For `C=CC(=O)N1CCN(c2nc(OCC3CCCN3C)nc3c(F)c(-c4nc(N)cc(C)c4C(F)(F)F)c(Cl)cc23)C(C)C1` (stereo not drawn), the viability, T/C (compound 0.1 µM) was 98.5% [middle of 12 runs], the viability, T/C (compound 1 µM) was 102% [middle of 12 runs] and the IC50 (compound alone, run of 06/10/2024) was > 1 µM. The IC50 (curve of compound) was > 1 µM.
